Measured values as given in US20240327469A1, “FUNCTIONALISED POLYPEPTIDES, NANOPARTICLES AND USES THEREOF” (priority 2021, published 2024).
Structures can show the parent of a compound that is named as a salt.

Tests used:
MCF-7 = assay: In vitro cytotoxicity (alamarBlue); assay type: cell-based; settings: Homo sapiens, MCF7; MCF-7, 48 h
Protocol: (§1) Doxorubicin hydrochloride (DOX) was used as the positive control. For the MCF-7 and MCF-7/ADR, the initial concentration of DOX used was 10 μg/mL and 100 μg/mL, respectively.

MCF-7/ADR = assay: In vitro cytotoxicity (alamarBlue); assay type: cell-based, human
Protocol: as §1

MCF-7 cells [1] = assay: Inhibition of cell migration (wound scratch assay); assay type: cell-based, human; settings: 24 h at respective IC50
Protocol: MCF-7 cells (8×10^5/well) were seeded in 6-well plates and incubated overnight for cell adhesion. To create a scratch, a 200 μL pipet tip was used to scrape a straight line through the cell layer. The old media was removed and washed with PBS, and the cells observed under a microscope to acquire images of the original scratch. […] After that, the scratches were observed and imaged using a microscope (Leica, Germany).

MCF-7 cells [2] = assay: Cellular morphology staining; assay type: cell-based, human; settings: MCF-7, 24 h; PLL-Gua and Gua-NPs 25 μg/mL, DOX 5.8 μg/mL
Protocol: (§2) MCF-7 and MCF-7/ADR cells were seeded at a density of 1000 cells/well in 50 μL medium, in a 384-well plate (PerkinElmer View Plate-384 Black). […] Treatment was performed at final concentrations of 25 μg/mL for PLL-Gua and Gua-NPs (on PLL-Gua basis) and 5.8 μg/mL for DOX, with a final volume of 40 μL per well. […] Subsequently, mitochondria were stained with Mito Tracker Deep Red solution in medium, with a final concentration of 100 nM. […] To fix the cells, 20 μL of 16% formaldehyde in PBS were added to each well (final concentration: 4%) and incubated in the dark at room temperature for 20 min. The cells were washed two times with 70 μL of Hanks' balanced salt solution (HBSS). […] The cells were incubated in the dark at room temperature for 30 min. Then, the cells were washed three times with 70 μL HBSS. The HBSS was not aspirated after the final washing step. The plates were sealed and centrifuged for 1 min at 500 rpm. The plate was then imaged using an Opera Phenix high content screening microscope (PerkinElmer) in 4 channels (Ex405/Em456; Ex488/Em522; Ex561/Em599; Ex640/Em706) with 9 sites per well and 63× magnification (binning 2).

MCF-7/ADR cells = assay: Cellular morphology staining; assay type: cell-based, human; settings: 24 h, PLL-Gua and Gua-NPs 25 μg/mL, DOX 5.8 μg/mL
Protocol: as §2

`COc1cccc2c1C(=O)c1c(O)c3c(c(O)c1C2=O)C[C@@](O)(C(=O)CO)C[C@@H]3O[C@H]1C[C@H](N)[C@H](O)[C@H](C)O1` [DOX, Doxorubicin hydrochloride] was tested, and the IC50 (MCF-7) was 0.13 µg/mL, the “difference of IC50 value, MCF-7/ADR vs MCF-7” value (MCF-7/ADR) was 769 fold and the MCF-7 cell migration (MCF-7 cells [1]) was “reduced wound gap”. The cellular morphology (MCF-7 cells [2]) was “drastic decrease in the staining of DNA and RNA” and the cellular morphology (MCF-7/ADR cells) was “did not induce such changes”.
